Experimental data as given in article PMC5945563 (Chemistry Central Journal, 2018).
Where a name gives a salt, the structure may show the parent alone.

Columns and labels:
[1] = target: human 5-HT6 receptor (Homo sapiens, UniProt P50406); test: Radioligand binding assay, [3H]-LSD, HEK293 cell membranes
[2] = target: human D2L receptor (Homo sapiens, UniProt P14416); test: Radioligand binding assay, [3H]-raclopride, HEK293 cell membranes
[3] = target: T1, human 5-HT1A receptor (Homo sapiens, UniProt P08908); test: Radioligand binding assay, [3H]-8-OH-DPAT, HEK293 cell membranes
T1 sequence (P08908 1-422): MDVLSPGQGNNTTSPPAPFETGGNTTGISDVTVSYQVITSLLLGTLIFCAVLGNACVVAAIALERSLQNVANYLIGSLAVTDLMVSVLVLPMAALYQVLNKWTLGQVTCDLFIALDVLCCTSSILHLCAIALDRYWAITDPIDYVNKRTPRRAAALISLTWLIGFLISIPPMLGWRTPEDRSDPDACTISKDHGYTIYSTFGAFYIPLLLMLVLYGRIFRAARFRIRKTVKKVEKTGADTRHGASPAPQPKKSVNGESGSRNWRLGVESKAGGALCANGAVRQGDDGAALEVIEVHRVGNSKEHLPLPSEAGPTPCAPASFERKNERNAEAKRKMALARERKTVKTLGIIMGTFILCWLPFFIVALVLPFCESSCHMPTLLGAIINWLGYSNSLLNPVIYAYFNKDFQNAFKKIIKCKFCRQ

[4] = target: human 5-HT7b receptor (Homo sapiens, UniProt P34969); test: Radioligand binding assay, [3H]-5-CT, HEK293 cell membranes
Chain of human 5-HT7b receptor (P34969 1-432 limits assumed): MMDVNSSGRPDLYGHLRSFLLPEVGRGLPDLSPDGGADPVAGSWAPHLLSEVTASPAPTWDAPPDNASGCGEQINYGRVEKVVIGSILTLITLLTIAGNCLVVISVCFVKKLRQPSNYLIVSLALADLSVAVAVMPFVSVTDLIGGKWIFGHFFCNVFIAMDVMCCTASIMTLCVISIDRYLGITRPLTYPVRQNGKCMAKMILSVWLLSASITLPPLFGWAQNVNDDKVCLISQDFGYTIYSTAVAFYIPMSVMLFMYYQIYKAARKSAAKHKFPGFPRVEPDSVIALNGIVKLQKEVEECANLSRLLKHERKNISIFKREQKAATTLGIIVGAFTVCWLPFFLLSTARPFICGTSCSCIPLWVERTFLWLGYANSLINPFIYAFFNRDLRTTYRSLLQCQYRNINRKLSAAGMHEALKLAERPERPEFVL

Chain of human D2L receptor (P14416 whole entry): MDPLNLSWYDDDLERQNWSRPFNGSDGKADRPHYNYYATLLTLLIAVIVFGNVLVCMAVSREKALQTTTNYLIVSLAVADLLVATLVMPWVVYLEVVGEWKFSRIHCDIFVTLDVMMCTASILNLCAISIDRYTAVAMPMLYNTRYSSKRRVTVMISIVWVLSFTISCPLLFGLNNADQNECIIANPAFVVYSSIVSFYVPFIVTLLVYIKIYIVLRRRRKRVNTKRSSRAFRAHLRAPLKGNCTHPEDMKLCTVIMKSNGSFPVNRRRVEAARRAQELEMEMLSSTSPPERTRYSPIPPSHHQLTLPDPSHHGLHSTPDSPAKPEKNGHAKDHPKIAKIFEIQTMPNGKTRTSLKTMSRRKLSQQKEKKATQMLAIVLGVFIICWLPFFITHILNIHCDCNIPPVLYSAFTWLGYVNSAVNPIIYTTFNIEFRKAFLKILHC
Chain of human 5-HT6 receptor (P50406 whole entry): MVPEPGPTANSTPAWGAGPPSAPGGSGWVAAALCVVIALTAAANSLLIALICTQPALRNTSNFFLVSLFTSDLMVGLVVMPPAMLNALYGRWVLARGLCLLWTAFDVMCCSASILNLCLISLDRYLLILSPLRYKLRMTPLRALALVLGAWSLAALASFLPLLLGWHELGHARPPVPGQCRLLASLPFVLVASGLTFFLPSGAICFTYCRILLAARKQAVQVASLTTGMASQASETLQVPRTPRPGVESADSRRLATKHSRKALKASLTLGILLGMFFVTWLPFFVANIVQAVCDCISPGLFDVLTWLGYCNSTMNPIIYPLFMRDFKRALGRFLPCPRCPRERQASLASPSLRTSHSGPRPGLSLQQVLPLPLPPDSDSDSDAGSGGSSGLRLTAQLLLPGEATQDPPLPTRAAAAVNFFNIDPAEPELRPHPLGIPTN

Row | melting point | Ki [1] | Ki [2] | Ki [3] | Ki [4] | SMILES
1 | 198 to 199 °C |  |  |  |  | O=S(=O)(NCCCCN1CCN(c2ccccc2)CC1)c1cc2ccccc2cn1 (as salt: hydrochloride) [Compound 1, N-(4-(4-phenyl)piperazin-1-yl)butyl)isoquinoline-3-sulfonamide hydrochloride]
2 | 246 to 247 °C | 436 nM | 47 nM | 38 nM | 49 nM | Cl.O=S(=O)(NCCCCN1CCN(c2cccc(Cl)c2)CC1)c1cc2ccccc2cn1 [Compound 2, N-(4-(4-(3-chlorophenyl)piperazin-1-yl)butyl)isoquinoline-3-sulfonamide hydrochloride]
3 | 215 to 216 °C | 916 nM | 23 nM | 73 nM | 85 nM | Cc1cccc(N2CCN(CCCCNS(=O)(=O)c3cc4ccccc4cn3)CC2)c1C.Cl [Compound 4, N-(4-(4-(2,3-dimethylphenyl)piperazin-1-yl)butyl)isoquinoline-3-sulfonamide hydrochloride]
